According to paper PMC5334609, “Separation and Characterization of Angiotensin I Converting Enzyme (ACE) Inhibitory Peptides from Saurida elongata Proteins Hydrolysate by IMAC-Ni^2+” (Marine Drugs, 2017):
Where a SMILES comes first, the peptide text is derived from it.

Target: T1, angiotensin I converting enzyme (ACE) (Oryctolagus cuniculus, UniProt P12822)
T1 construct: ACE (from rabbit lung; 2.0 units/mg of protein); purchased Sigma Chemical Company (St. Louis, MO, USA); host or cells: rabbit lung (tissue-derived)
T1 sequence (P12822 34-1310): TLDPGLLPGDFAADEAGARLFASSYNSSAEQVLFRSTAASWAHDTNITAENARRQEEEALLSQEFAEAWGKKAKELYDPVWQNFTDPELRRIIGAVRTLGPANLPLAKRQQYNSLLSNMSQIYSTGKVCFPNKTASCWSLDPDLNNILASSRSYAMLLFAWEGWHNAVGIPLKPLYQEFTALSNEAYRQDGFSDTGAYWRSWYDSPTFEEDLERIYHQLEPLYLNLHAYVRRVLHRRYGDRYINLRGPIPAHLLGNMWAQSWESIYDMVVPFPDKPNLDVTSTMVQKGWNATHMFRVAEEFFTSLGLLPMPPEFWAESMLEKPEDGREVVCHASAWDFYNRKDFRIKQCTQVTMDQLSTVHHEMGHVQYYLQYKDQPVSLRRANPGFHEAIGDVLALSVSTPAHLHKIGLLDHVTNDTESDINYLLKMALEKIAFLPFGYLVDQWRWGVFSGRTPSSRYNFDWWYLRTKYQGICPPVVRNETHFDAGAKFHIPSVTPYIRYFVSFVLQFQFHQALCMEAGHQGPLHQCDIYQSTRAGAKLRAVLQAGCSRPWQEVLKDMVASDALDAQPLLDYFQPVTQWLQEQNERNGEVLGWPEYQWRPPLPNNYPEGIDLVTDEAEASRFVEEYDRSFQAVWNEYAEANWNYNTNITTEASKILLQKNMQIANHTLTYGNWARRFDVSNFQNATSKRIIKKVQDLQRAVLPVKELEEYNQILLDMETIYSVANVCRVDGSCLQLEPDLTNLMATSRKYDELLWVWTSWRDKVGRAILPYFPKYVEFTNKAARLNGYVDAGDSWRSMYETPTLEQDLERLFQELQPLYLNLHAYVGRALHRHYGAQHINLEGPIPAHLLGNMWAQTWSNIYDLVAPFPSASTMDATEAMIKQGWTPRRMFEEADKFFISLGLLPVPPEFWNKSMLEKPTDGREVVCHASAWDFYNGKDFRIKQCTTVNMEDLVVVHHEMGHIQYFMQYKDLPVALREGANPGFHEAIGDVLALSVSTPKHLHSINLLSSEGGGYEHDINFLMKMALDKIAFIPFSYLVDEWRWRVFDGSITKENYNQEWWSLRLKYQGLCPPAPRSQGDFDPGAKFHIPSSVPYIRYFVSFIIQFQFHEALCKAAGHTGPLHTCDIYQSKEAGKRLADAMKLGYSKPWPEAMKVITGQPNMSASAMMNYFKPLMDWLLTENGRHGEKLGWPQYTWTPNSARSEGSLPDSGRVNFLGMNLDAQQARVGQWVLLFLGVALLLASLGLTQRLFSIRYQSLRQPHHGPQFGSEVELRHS
Test: ACE inhibitory activity (IC50 and inhibitory ratio IP)
Assay type: biochemical
Details: ACE from rabbit lung
Method: Lizard fish was purchased from a local market in Nanning, China, during the fishing season. It was identified by engineer Cuican at Beihai Institute of Oceanology. Its muscle was rapidly separated, dried with hot air (90 °C) over 8 h, powdered, and then stored in the cryogenic refrigerator. Agarose (BR) and NiSO4·6H2O (AR) were purchased from Sinopharm Chemical Reagent Co., (Beijing, China). Iminodiacetic acid (IDA) was purchased from Sinopharm Chemical Reagent Co., Ltd. (Beijing, China). ACE (from rabbit lung; 2.0 units/mg of protein) and hippuryl-L-histidyl-L-leucine (HHL) were purchased from the Sigma Chemical Company (St. Louis, MO, USA). All other reagents used were of analytical grade.
The affinity column was equilibrated at a flow rate of 1.5 mL·min^−1 with PBS. […] Fractions with affinity for Ni^2+ ion were eluted and monitored at 280 nm. […] The ACE-inhibitory activity of these fractions were determined, and the inhibitory ratios (IP) were calculated according to Wu et al.. The concentrations of protein were measured by the UV method using a wavelength of 280 nm, and the protein recovery rate was calculated as follows: (1) R=m/M×100% • R—Recovery rate of protein, %; • m—Protein content of the sample eluted from IMAC (IMAC fractions), mg; • M—Protein content of the sample before treatment of IMAC chromatographic procedures, mg.

What does the source list for `N=C(N)NCCC[C@H](NC(=O)[C@H](Cc1ccc(O)cc1)NC(=O)[C@@H](N)CCCNC(=N)N)C(=O)N1CCC[C@H]1C(=O)O` [RYRP, Arg-Tyr-Arg-Pro] (H-RYRP-OH)?
IC50 (ACE inhibition, HHL listed as material, inhibitory ratios calculated according to Wu et al. [22]): 52 µM; IP% (inhibitory activity of fractions separated by RP-HPLC) (RP-HPLC fractions of F2 (Zorbax SB C18), inhibitory ratio according to Wu et al. [22], test concentration not given): 73.05%
